Measured values reported in ChEMBL document CHEMBL1909046, “DrugMatrix in vitro pharmacology data”.

Tests used:
[1] = DRUGMATRIX: Sodium/nucleoside co-transporter radioligand binding (ligand: nitrobenzylthioinosine); type: cell membranes, Cavia porcellus, Dunkin-Hartley, Cerebral cortex, Membrane; conditions: Not Active = under 50% inhibition at 10 µM
[2] = target: T1, Alpha-2A adrenergic receptor (Homo sapiens, UniProt P08913); type: cell membranes, Sf9, Membrane; conditions: for Ki: read-out: Ki; for all read-outs here: in other assays of this panel Not Active means under 50% inhibition at 10 µM
T1 sequence (P08913 whole entry): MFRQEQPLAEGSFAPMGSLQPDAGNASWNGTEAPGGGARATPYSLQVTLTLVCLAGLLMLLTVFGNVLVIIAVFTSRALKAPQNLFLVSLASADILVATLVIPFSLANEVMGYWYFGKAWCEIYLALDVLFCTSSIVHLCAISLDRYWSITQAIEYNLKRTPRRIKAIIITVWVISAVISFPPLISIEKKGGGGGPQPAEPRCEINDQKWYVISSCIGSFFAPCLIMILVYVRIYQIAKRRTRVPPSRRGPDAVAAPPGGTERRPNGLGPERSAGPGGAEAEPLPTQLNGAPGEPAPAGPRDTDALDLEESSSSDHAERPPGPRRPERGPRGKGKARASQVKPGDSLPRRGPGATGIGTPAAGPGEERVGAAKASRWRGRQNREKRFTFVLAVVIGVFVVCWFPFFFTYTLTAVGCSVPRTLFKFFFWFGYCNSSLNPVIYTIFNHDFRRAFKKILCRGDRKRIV

[3] = target: T2, Type-2 angiotensin II receptor (Homo sapiens, UniProt P50052); type: cell-based; conditions: cho-k1; note: in other assays of this panel Not Active means under 50% inhibition at 10 µM
T2 sequence (P50052 whole entry): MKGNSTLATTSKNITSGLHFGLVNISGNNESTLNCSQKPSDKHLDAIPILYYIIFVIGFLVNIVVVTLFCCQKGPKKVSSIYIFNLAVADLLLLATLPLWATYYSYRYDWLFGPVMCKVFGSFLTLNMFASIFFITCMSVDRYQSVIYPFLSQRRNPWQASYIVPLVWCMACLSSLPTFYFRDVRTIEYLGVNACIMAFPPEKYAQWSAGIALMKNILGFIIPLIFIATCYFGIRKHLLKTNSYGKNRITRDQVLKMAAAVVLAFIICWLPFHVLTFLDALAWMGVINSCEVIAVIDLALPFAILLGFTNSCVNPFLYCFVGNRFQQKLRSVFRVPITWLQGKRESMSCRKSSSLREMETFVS

Vasopressin V1a receptor = Vasopressin V1a receptor (Homo sapiens, UniProt P37288); type: cell membranes, Membrane; conditions: hek293; note: in other assays of this panel Not Active means under 50% inhibition at 10 µM
Vasopressin V1a receptor, sequence (P37288 whole entry): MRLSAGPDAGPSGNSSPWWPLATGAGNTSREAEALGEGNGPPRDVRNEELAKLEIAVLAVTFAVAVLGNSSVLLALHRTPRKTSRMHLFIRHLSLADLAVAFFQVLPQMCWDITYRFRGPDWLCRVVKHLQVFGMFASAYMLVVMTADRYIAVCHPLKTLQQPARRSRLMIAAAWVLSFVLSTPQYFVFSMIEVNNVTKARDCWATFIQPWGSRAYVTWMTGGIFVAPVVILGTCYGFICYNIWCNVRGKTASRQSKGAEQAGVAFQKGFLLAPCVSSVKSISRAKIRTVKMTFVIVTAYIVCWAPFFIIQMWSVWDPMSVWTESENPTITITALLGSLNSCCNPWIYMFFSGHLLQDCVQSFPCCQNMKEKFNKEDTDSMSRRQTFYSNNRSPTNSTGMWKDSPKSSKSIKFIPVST

Mu-type opioid receptor = Mu-type opioid receptor (Homo sapiens, UniProt P35372); test: DRUGMATRIX: Opiate mu (OP3, MOP) radioligand binding (ligand: [3H] Diprenorphine); type: cell membranes, CHO-K1, Membrane; conditions: Not Active = under 50% inhibition at 10 µM
Mu-type opioid receptor, sequence (P35372 whole entry): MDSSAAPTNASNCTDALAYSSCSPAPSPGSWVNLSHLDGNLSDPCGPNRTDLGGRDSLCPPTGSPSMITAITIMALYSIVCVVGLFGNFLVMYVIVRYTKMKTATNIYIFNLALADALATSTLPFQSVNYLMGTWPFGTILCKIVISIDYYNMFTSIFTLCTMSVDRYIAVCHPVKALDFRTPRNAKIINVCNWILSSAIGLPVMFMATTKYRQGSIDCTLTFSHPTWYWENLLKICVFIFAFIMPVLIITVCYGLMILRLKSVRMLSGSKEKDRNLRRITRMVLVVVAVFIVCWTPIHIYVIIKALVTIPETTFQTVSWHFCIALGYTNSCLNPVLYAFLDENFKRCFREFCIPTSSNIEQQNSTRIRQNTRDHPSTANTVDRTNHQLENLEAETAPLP

Cytochrome P450 2C9 = Cytochrome P450 2C9 (Homo sapiens, UniProt P11712); conditions: bti-tn-5b1-4; note: in other assays of this panel Not Active means under 50% inhibition at 10 µM
Cytochrome P450 2C9, sequence (P11712 whole entry): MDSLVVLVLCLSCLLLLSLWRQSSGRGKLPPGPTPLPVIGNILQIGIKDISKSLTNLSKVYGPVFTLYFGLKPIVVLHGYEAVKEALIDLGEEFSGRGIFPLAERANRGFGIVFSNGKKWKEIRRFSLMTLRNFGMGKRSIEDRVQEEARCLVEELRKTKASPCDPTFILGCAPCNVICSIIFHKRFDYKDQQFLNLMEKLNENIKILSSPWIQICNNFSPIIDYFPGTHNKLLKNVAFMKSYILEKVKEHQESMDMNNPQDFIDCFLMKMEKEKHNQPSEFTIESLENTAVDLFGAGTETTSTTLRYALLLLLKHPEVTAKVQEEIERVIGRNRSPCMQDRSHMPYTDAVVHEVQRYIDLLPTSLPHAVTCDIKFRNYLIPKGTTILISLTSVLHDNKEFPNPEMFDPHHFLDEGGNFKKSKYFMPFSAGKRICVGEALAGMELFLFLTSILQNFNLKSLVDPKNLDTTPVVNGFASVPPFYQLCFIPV

SMILES | IC50 [1] | Ki [1] | IC50 ([2]; read-out: IC50) [nM] | Ki [2] [nM] | IC50 [3] | IC50 (Vasopressin V1a receptor) | IC50 (Mu-type opioid receptor; cho-k1) | IC50 ([2]; sf9) | IC50 (Cytochrome P450 2C9) | Ki (Cytochrome P450 2C9) | IC50 ([1]; read-out: IC50) [nM] | Ki ([1]; read-out: Ki) [nM] | Ki (Mu-type opioid receptor) [nM] | IC50 (Mu-type opioid receptor; read-out: IC50) [nM]
CCOc1cc(N)c(Cl)cc1C(=O)NCC1CN(Cc2ccc(F)cc2)CCO1 (stereo not drawn) [MOSAPRIDE] | Not Active | Not Active | 3680 | 1380 | Not Active | Not Active | Not Active |  |  |  |  |  |  | 
O=C(c1ccccc1)c1ccc2n1CCC2C(=O)O (stereo not drawn) [KETOROLAC] | Not Active | Not Active |  |  | Not Active | Not Active | Not Active | Not Active | Not Active | Not Active |  |  |  | 
Nc1nc(N)c2nc(-c3ccccc3)c(N)nc2n1 | Not Active | Not Active |  |  | Not Active | Not Active | Not Active | Not Active |  |  |  |  |  | 
Oc1ccc(/C=C/c2cc(O)cc(O)c2)cc1 [RESVERATROL] | Not Active | Not Active |  |  | Not Active | Not Active |  | Not Active |  |  |  |  |  | 
Cc1ccnc(NS(=O)(=O)c2ccc(N)cc2)n1 [SULFAMERAZINE] | Not Active | Not Active |  |  | Not Active | Not Active | Not Active | Not Active | Not Active | Not Active |  |  |  | 
CCN1CCCC1CNC(=O)c1cc(S(N)(=O)=O)ccc1OC (stereo not drawn) [SULPIRIDE] | Not Active | Not Active | 2020 | 757 | Not Active | Not Active | Not Active |  | Not Active | Not Active |  |  |  | 
O=C1CC[C@@]2(O)[C@H]3Cc4ccc(O)c5c4[C@@]2(CCN3CC2CC2)[C@H]1O5 [NALTREXONE] | Not Active | Not Active |  |  | Not Active | Not Active |  | Not Active | Not Active | Not Active |  |  |  | 
CCN(CC)C(=S)SSC(=S)N(CC)CC |  |  |  |  | Not Active | Not Active |  |  | Not Active | Not Active | 16900 | 5790 | 1420 | 3510
O=C(OC[C@H]1O[C@@H](OC(=O)c2cc(O)c(O)c(OC(=O)c3cc(O)c(O)c(O)c3)c2)[C@H](OC(=O)c2cc(O)c(O)c(OC(=O)c3cc(O)c(O)c(O)c3)c2)[C@@H](OC(=O)c2cc(O)c(O)c(OC(=O)c3cc(O)c(O)c(O)c3)c2)[C@@H]1OC(=O)c1cc(O)c(O)c(OC(=O)c2cc(O)c(O)c(O)c2)c1)c1cc(O)c(O)c(OC(=O)c2cc(O)c(O)c(O)c2)c1 [TANNIC ACID] | Not Active | Not Active |  |  | Not Active | Not Active | Not Active | Not Active |  |  |  |  |  | 
C=CCc1ccc2c(c1)OCO2 [SAFROLE] | Not Active | Not Active |  |  | Not Active | Not Active | Not Active | Not Active | Not Active | Not Active |  |  |  | 
C#C[C@]1(O)CC[C@H]2[C@@H]3[C@H](C)CC4=C(CCC(=O)C4)[C@H]3CC[C@@]21C [TIBOLONE] | Not Active | Not Active |  |  | Not Active | Not Active | Not Active | Not Active | Not Active | Not Active |  |  |  | 
CC[C@@]1(O)C(=O)OCc2c1cc1n(c2=O)Cc2cc3c(CN(C)C)c(O)ccc3nc2-1 [TOPOTECAN] | Not Active | Not Active |  |  | Not Active | Not Active | Not Active | Not Active | Not Active | Not Active |  |  |  | 
CC1(C)[C@H](C(=O)O)N2C(=O)C[C@H]2S1(=O)=O [SULBACTAM] | Not Active | Not Active |  |  | Not Active | Not Active | Not Active | Not Active | Not Active | Not Active |  |  |  | 
CCN(CC)N=O [N-NITROSODIETHYLAMINE] | Not Active | Not Active |  |  | Not Active | Not Active |  | Not Active | Not Active | Not Active |  |  |  | 
